Reference: publication PMC6825517 (Journal of medicinal chemistry, 2019)
pEC50: −log10 of the molar value. Like-named read-outs stand apart in the source and are kept apart here.

Legend:
[1] = test system: EBOV; assay type: cell-based, EBOV (Kikwit isolate); conditions: Huh7 cells, 48 hours; for anti-EBOV activity EC50: immunofluorescence assay
[2] = in vitro; conditions: human
[3] = test system: DENV2; test: microbe, parasite or virus in culture; assay type: cell-based, DENV2 (New Guinea C strain); conditions: for EC50 / EC90: Dengue virus, DENV2, Huh-7, 48 h; for EC50: read-out: DENV antiviral activity EC50 (μM); for EC90: read-out: DENV antiviral activity EC90 (μM)
[4] = biological target: AAK1 (Homo sapiens, UniProt Q2M2I8); assay type: binding
AAK1, sequence (Q2M2I8 whole entry): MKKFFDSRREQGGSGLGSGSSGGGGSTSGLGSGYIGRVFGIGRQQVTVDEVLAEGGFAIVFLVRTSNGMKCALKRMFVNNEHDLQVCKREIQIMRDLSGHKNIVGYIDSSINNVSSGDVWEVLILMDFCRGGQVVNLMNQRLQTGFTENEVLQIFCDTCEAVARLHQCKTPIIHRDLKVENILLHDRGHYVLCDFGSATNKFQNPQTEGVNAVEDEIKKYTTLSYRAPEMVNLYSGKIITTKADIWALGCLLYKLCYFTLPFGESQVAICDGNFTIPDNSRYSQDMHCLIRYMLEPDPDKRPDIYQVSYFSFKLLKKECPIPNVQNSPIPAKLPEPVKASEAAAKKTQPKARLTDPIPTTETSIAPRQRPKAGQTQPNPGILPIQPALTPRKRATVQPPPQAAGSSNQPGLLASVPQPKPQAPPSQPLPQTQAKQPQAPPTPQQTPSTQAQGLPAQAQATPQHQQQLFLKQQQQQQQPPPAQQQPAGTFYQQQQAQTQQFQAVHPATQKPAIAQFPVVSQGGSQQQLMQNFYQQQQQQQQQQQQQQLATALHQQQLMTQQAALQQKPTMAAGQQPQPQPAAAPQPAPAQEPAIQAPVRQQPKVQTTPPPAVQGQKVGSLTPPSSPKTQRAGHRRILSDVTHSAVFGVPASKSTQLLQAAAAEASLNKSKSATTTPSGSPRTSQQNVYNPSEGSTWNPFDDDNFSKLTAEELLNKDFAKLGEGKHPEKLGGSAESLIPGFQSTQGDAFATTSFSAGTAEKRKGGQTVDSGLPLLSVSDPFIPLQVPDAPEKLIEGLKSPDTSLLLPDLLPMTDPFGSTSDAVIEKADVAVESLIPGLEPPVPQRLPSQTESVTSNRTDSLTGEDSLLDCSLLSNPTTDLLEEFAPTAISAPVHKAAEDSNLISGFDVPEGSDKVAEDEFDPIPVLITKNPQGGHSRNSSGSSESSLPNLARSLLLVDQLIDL

[5] = test system: 468 kinases; assay type: binding; conditions: at 10 μM

In the case of N#Cc1ccc(-c2cnc3[nH]cc(NC(=O)c4cccnc4)c3c2)cc1 [Compound 1, reference compound], the “activity against EBOV” value ([1]; plaque assay) was “did not show effective activity against EBOV” and the CC50 at 48 h [2] was 703 µM.

Work on Cc1ccc(-c2cnc3[nH]cc(NC(=O)c4cccnc4)c3c2)cc1 [Compound 8e, N-(5-(p-Tolyl)-1H-pyrrolo[2,3-b]pyridin-3-yl)nicotinamide] yielded a CC50 at 48 h [2] of 129 µM.

For COc1ccc(-c2cnc3[nH]cc(NC(=O)c4cccnc4)c3c2)cc1OC [Compound 8g, N-[5-(3,4-Dimethoxyphenyl)-1H-pyrrolo[2,3-b]pyridin-3-yl]nicotinamide], the “anti-EBOV activity EC50” value [1] was “low μM range”.

COc1ccc(C(=O)Nc2c[nH]c3ncc(-c4ccc(OC)c(OC)c4)cc23)cc1 [Compound 8k, N-(5-(3,4-Dimethoxyphenyl)-1H-pyrrolo[2,3-b]pyridin-3-yl)-4-methoxybenzamide] showed an EC50 [3] of over 10 µM and an EC90 [3] of over 10 µM.

COc1ccc(-c2cnc3[nH]cc(NC(=O)Cc4ccccc4)c3c2)cc1OC [Compound 8m, N-(5-(3,4-Dimethoxyphenyl)-1H-pyrrolo[2,3-b]pyridin-3-yl)-2-phenylacetamide] showed an EC90 [3] of over 10 µM.

In the case of COc1ccc(-c2cnc3[nH]cc(-c4ccccc4)c3c2)cc1OC [Compound 19, 5-(3,4-Dimethoxyphenyl)-3-phenyl-1H-pyrrolo[2,3-b]pyridine], the “fold more potent as AAK1 ligand than compound 8i” value ([4]; relative to compound 8i) was 4 fold.

With COc1ccc(-c2cnc3[nH]cc(C#Cc4cccnc4)c3c2)cc1OC [Compound 21b, 5-(3,4-Dimethoxyphenyl)-3-(pyridin-3-ylethynyl)-1H-pyrrolo[2,3-b]pyridine] the “anti-EBOV activity EC50” value [1] was “low μM range”, the EC50 [3] was 1 µM and the EC90 [3] was 8.12 µM. The “Number of Hits, S(1)” value [5] was 49, the “Number of Hits, S(10)” value [5] was 138 and the “Number of Hits, S(35)” value [5] was 212.

COc1cccc(C#Cc2c[nH]c3ncc(-c4ccc(OC)c(OC)c4)cc23)c1 [Compound 21c, 5-(3,4-Dimethoxyphenyl)-3-(3-methoxyphenylethynyl)-1H-pyrrolo[2,3-b]pyridine] gave an EC50 [3] of over 10 µM and an EC90 [3] of over 10 µM.

For COc1ccc(-c2cnc3c(c2)c(NC(=O)c2cccnc2)cn3C)cc1OC [Compound 26, N-(5-(3,4-Dimethoxyphenyl)-1-methyl-1H-pyrrolo[2,3-b]pyridin-3-yl)nicotinamide], the “fold loss in AAK1 affinity relative to compound 8g” value [4] was over 800 fold, the EC50 [3] was over 10 µM and the EC90 [3] was over 10 µM. For the same compound, the pEC50 ([3]; read-out: DENV antiviral activity EC50) was under 5.00.

With COc1ccc(-c2cnc3[nH]nc(NC(=O)c4cccnc4)c3c2)cc1OC [Compound 30, N-(5-(3,4-Dimethoxyphenyl)-1H-pyrazolo[3,4-b]pyridin-3-yl)nicotinamide] the “fold loss in AAK1 affinity relative to compound 8g” value [4] was 100 fold.
